Data on 12 molecules can be found in ChEMBL document CHEMBL1157931 (Bioorg Med Chem, 2010).

The target of series [1] is T1, 5-hydroxytryptamine receptor 1A (Homo sapiens) (UniProt P08908).
T1 sequence (whole entry): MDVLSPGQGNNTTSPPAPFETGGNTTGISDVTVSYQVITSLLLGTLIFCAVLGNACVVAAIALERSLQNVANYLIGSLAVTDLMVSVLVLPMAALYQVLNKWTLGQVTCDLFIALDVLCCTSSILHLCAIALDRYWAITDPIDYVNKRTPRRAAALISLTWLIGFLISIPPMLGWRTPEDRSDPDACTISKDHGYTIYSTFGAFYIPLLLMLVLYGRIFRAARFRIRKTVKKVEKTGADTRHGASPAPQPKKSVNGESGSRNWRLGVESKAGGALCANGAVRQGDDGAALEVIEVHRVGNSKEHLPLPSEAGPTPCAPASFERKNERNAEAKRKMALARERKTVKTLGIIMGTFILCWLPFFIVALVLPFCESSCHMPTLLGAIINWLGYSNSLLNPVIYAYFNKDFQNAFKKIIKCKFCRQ
Nature of the series: Agonist activity at 5HT1A receptor expressed in HEK293 cells by [S35]GTPgammaS binding assay relative to 8-OH-DPAT. It is filed as functional, cell-based. Details: concentration or dose not given beside the values. A general note: GTPγS resists hydrolysis and so accumulates on activated G proteins.

For series [2], the target named is T1, 5-hydroxytryptamine receptor 1A (Homo sapiens). Briefly: Displacement of [3H]8-OH-DPAT from 5HT1A receptor expressed in HEK293 cells at 25 ug/ml after 2 hrs by liquid scintillation counting. Format: cell-based. On the technique in general: Displacement assays read how much labelled ligand stays bound in the presence of the test substance.
In series [3] the test system is Caco-2. Nature of the series: Cytotoxicity against human Caco-2 cells at 50 ug/ml. Format: cell-based.
In series [4] the target is ATP-dependent translocase ABCB1 (Homo sapiens, UniProt P08183). Nature of the series: Inhibition of human MDR1 expressed in MDCK cells assessed as fluorescence activity at 30 uM after 1.5 hrs by rhodamine 123 efflux test. Format: cell-based.
Series [5] has as its target T1, 5-hydroxytryptamine receptor 1A (Homo sapiens). Nature of the series: Antagonist activity at 5HT1A receptor expressed in HEK293 cells assessed as inhibition of 8-OH-DPAT-induced [S35]GTPgammaS binding by scintillation counting. It is filed as functional, cell-based.
In series [6] the test system is Caco-2. Briefly: Permeability in human Caco-2 cells assessed as passive diffusion after 3 hrs by HPLC. It is filed as ADME, cell-based. The note with it: caco-2, 3 h. For orientation: Passage across Caco-2 layers is used to estimate intestinal permeability.
Series [7] deals with T1, 5-hydroxytryptamine receptor 1A (Homo sapiens). Briefly: Antagonist activity at 5HT1A receptor expressed in HEK293 cells assessed as inhibition of serotonin-induced [S35]GTPgammaS binding by scintillation counting. Format: functional, cell-based.
Series [8] has as its target T2, 5-hydroxytryptamine receptor 1A (Homo sapiens, UniProt P08908).
T2 sequence (P08908 whole entry): T1 sequence (whole entry)
Briefly: Displacement of [3H]8-OH-DPAT from 5HT1A receptor expressed in HEK293 cells after 2 hrs by liquid scintillation counting. Format: cell-based.

Series [9] concerns the target T1, 5-hydroxytryptamine receptor 1A (Homo sapiens). Nature of the series: Agonist activity at 5HT1A receptor expressed in HEK293 cells at >20 uM by [S35]GTPgammaS binding assay relative to 8-OH-DPAT. It is filed as functional, cell-based.

Each structure is given as a SMILES string. Calls of active or inactive are those of the source. The calls are words filed in the database; no cut-off is given here. Where only a bound is given, the exact number is not on record here.

ATP-dependent translocase ABCB1, sequence (P08183 whole entry): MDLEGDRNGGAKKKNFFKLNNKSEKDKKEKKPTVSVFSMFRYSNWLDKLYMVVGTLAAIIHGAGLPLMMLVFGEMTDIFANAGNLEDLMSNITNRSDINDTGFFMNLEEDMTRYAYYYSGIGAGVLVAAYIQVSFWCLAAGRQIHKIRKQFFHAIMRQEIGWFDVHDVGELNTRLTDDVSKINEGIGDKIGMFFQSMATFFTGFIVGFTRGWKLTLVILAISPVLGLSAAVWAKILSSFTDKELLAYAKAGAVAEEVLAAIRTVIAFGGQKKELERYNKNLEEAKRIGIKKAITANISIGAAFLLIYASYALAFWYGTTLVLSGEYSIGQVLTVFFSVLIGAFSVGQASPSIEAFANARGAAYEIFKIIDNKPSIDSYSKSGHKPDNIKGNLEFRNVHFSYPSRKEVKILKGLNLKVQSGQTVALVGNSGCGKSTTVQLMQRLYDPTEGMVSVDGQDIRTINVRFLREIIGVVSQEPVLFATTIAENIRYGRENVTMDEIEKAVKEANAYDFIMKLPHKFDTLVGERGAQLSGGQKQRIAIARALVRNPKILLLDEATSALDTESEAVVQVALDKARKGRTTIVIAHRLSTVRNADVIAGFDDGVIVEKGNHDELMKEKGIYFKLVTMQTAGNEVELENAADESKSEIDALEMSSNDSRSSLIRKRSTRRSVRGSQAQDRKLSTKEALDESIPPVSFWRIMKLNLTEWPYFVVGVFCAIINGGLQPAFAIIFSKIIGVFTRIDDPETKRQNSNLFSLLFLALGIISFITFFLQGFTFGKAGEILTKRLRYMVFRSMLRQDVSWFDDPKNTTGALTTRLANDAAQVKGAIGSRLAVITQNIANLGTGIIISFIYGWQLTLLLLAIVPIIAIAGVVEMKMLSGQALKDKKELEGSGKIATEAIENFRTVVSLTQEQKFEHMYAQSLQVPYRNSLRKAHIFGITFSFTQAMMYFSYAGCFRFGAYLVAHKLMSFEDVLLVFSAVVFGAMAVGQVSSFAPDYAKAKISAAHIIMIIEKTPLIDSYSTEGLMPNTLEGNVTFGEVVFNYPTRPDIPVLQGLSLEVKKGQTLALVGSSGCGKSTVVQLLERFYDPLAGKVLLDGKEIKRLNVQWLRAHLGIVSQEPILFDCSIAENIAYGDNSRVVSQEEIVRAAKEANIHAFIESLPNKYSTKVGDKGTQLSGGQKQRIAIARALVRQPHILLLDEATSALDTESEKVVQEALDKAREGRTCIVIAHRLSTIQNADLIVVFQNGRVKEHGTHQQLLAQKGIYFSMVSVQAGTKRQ

As to `NCCc1c[nH]c2ccc(O)cc12`, the Activity in series [1] is 100%.
In the case of `CCCCCCCCC[C@H](O)CC(=O)CCc1ccc(O)c(OC)c1`, the Activity was greater than 10% in series [1], greater than 50% in series [2] and “Non-toxic” in series [3]. In addition, the “inhibition (INH)” value in series [4] is listed as “Not Active”. In addition, the outcome in series [5] and in series [7] was inactive. The permeability in series [6] came to 10%. Further, affinity in [8] was put at a Ki of 3.74 µM.
On to `CCCCCC(=O)/C=C(O)/C=C/c1ccc(O)c(OC)c1`, for which the figures for the Activity in [1] and in series [2] were greater than 20% and greater than 50%, respectively. Also, in series [4], the “inhibition (INH)” value is on record as “Not Active”. The outcome in series [5], in [7] and in series [9] was inactive. In [8], this molecule gave a Ki of 6.53 µM.
As to `CCCCCCC/C(O)=C/C(=O)/C=C/c1ccc(O)c(OC)c1`, in series [2], the Activity was greater than 50%. The “inhibition (INH)” value in [4] was “Not Active”. Moreover, the outcome in [5] and in [7] was inactive. Also, the Ki in [8] amounted to 6.54 µM.
`CCCCC/C=C/C(=O)CCc1ccc(O)c(OC)c1` [SHOGAOL]: the Activity in [2] is greater than 50%. In addition, the “inhibition (INH)” value in series [4] is recorded as “Not Active”. For the same molecule, the result in [5] and in [7] was inactive. The molecule further came in with a Ki in [8] of 18 µM.
With `CCCCCCC[C@H](O)CC(=O)CCc1ccc(O)c(OC)c1`, the Activity was greater than 50% in [2] and “Non-toxic” in [3]. In addition, the “inhibition (INH)” value in series [4] is on record as “Not Active”. In addition, the outcome in [5] and in [7] was inactive. Moreover, the permeability in [6] was found to be 10%. The molecule further had a Ki in [8] of 11.7 µM.
For the molecule `CCCCCCCCC/C(O)=C/C(=O)/C=C/c1ccc(O)c(OC)c1`, the Activity in series [2] was greater than 50%. The “inhibition (INH)” value in series [4] is listed as “Not Active”. The outcome in series [5] and in [7] was inactive. Further, in series [8], the Ki was found to be 3.59 µM.
In the case of `CCCCCCCC(O)CCc1ccc(O)c(OC)c1` (configuration not stated), the Activity in [1] is greater than 10%. The molecule further yielded a Ki in series [8] of 9.53 µM.
`CCCCC[C@H](O)CC(=O)CCc1ccc(O)c(OC)c1` [GINGEROL]: the Activity in series [2] is greater than 50%; in [3], “Non-toxic”. Besides, the “inhibition (INH)” value in [4] is given as “Not Active”. For the same molecule, the result in series [5] and in series [7] was inactive. Besides, the permeability in [6] is recorded as 10%. In series [8], this molecule came in with a Ki greater than 100 µM.
In series [2], `CCCCCCC/C=C/C(=O)CCc1ccc(O)c(OC)c1` yielded an Activity greater than 50%. Moreover, in series [4], the “inhibition (INH)” value was “Not Active”. Besides, the result in series [5] and in series [7] was inactive. Further, in series [8], the affinity corresponds to a Ki of 13 µM.
With `CC[C@]1(O)C[C@@H]2CN(CCc3c([nH]c4ccccc34)[C@@](C(=O)OC)(c3cc4c(cc3OC)N(C)[C@H]3[C@@](O)(C(=O)OC)[C@H](OC(C)=O)[C@]5(CC)C=CCN6CC[C@]43[C@@H]65)C2)C1` [VINBLASTINE], the “inhibition (INH)” value in series [4] was “Active”.
Take `CCCCCCCCC/C=C/C(=O)CCc1ccc(O)c(OC)c1`: the figures for the Activity in series [1], in series [2] and in series [3] were greater than 20%, greater than 50% and “Non-toxic”, respectively. In addition, in [4], the “inhibition (INH)” value is “Not Active”. The outcome in series [5], in [7] and in series [9] was inactive. Further, in [6], the permeability is given as 10%. In addition, the affinity in [8] corresponds to a Ki of 5.84 µM.

In general, Ki refers to a dissociation constant, usually derived from enzyme kinetics or from competition with a known ligand.
